# Source: PMC7906907, “Targeting STAT3 by a small molecule suppresses pancreatic cancer progression” (Oncogene, 2021)
# Assays:
# PANC-1 = PANC-1 subcutaneous tumor growth xenograft model; type: in vivo
# Procedure: Fig. 5 N4 suppresses pancreatic cancer growth in vivo. PANC-1 cells were injected into the right flank of BALB/c-nude mice. After the volume of tumor nodules reached 200–300 mm^3, the mice were randomly assigned to the indicated groups and were injected intraperitoneally daily with vehicle (n = 7), 40 mg/kg/d C188-9 (n = 7), 10 mg/kg/d N4 (n = 8), or 20 mg/kg/d N4 (n = 8). The mice were sacrificed after treatment for 20 days and the tumors from each group of mice were excised. A, B Tumor volumes were measured every 4 days. Tumor volumes were calculated by the formula: length × width^2 × 0.52. […] C After treatment for 20 days, the tumors from each group of mice were excised and photographed. D After the experiments, all the tumors were weighted. […] E Tumor samples were collected, and protein was extracted for western blot analysis. p-STAT3 (Y705), p-STAT3(S727), STAT3, and CMYC were detected, with GAPDH used as the loading control. Immunohistochemistry examinations were performed in the different treatment groups, p-STAT3 (Y705), Ki-67 and cleaved caspase3 were quantified (F) and photographed (G). The scale bar denotes 20 μm. Data are expressed as mean ± SD, **P < 0.01, ****P < 0.0001 and n.s. not significant by one-way ANOVA.
# BALB/c-nude, male, 6–8-week-old mice were obtained from the Animal Center of East China Normal University. All animal experimental protocols were approved by the Animal Investigation Committee of the Institute of Biomedical Sciences, East China Normal University. PANC-1 cells (5 × 10^6) were suspended in PBS with 50% Matrigel and injected into the right flank of the mice. Treatment began after the tumor nodules reached 150–250 mm^3 in volume. The tumor-bearing mice were randomly assigned to four groups and treated with the indicated compounds. The tumor volume and mice body weight were measured after 4 days. The tumor volume (V) was calculated as length × width × width × 0.52. At the end of experiment, the mice were sacrificed. Solid tumors were removed and processed for immunohistochemistry analysis.
# [1] = test system: STAT3 Tyr705 phosphorylation; experiment: Western blot of STAT3 activation in pancreatic cancer cells; type: cell-based
# Procedure: (§1) Fig. 2 N4 inhibits STAT3 activation in pancreatic cancer cells. A PANC-1, CAPAN-2, and BXPC-3 cells were treated with the indicated concentrations of N4 for 24 h. Then, p-STAT3 (Y705), p-STAT3 (S727), and STAT3 were detected by western blot assays with glyceraldehyde 3-phosphate dehydrogenase (GAPDH) used as the loading control. B Pancreatic cancer cells were starved in a medium lacking fetal bovine serum (FBS; basic medium) for 24 h, and then pretreated with N4 in basic medium for 24 h. Then, stimulated with IL-6 (20 ng/mL) for 30 min and lysed for western blot analysis using the indicated antibodies. C Expression levels of STAT3 downstream genes were detected by western blot following treatment of PANC-1 and CAPAN-2 cells with N4. D PANC-1 cells were seeded and allowed to attach, and then pretreated with 2 μM of N4 in FBS-free medium for 24 h. The cells were stimulated for 30 min using IL-6 (20 ng/mL). The STAT3 antibody (green) and 4, 6-diamidino-2-phenylindole (DAPI) (blue) was used for staining and STAT3 and the nucleus, respectively. The samples were photographed and analyzed. The scale bar represents 20 μm. E After 24 h treatment with 2 μM N4, PANC-1 cells were stimulated with IL-6 (20 ng/mL) for 30 min, and the cytoplasmic and nuclear extractions were analyzed by western blot. p-STAT3 (Y705) was used to detect STAT3, and GAPDH and H3 were used as the cytoplasm and nucleus internal control, respectively.
# Western blotting was performed as previously described. Briefly, cells were treated with indicated compounds and then lysed by boiling. […]
# [2] = test system: STAT3 nuclear translocation; experiment: Immunofluorescence of STAT3 nuclear translocation; type: cell-based; conditions: PANC-1 cells, 2 μM for 24 h, then IL-6
# Procedure: as §1, with “The STAT3 antibody (green) and 4, 6-diamidino-2-phenylindole (DAPI) (blue) was used for staining and STAT3 and the nucleus, respectively.” left out, “The scale bar represents 20 μm.” left out
# Immunofluorescence staining was performed as previously described. […] Images were recorded by confocal microscopy (Leica).
# [3] = PANC-1, CAPAN-2, BXPC-3 cells, 24 h
smiles,measurement,setting,value
COc1cc2c(cc1C(=O)Nc1cccc3cccnc13)CCC1C(C)(C)C(=O)C(C#N)=C[C@]21C (stereo partly shown) [N4],bodyweight of mice,PANC-1; 10 and 20 mg/kg/d,did not affect
same,pancreatic cancer growth (tumor volume),"PANC-1; 10 and 20 mg/kg/d, intraperitoneally daily, 20 days",significantly inhibited
same,"Hematoxylin and eosin staining of main organs, signs of toxicity","PANC-1; mouse, in vivo",did not produce morphological signs of toxicity
same,STAT3 Tyr705 phosphorylation,[1]; [3],selectively blocked
same,Ser-727 phosphorylation and STAT3 protein expression,[1]; [3],no obvious inhibition
same,"SHP2 (PTPase), p-STAT1, p-STAT5, p-extracellular signal-regulated kinase, and p-AKT levels",[1]; western blots,no obvious influence
same,STAT3 nuclear translocation,[2],substantially impaired
